Test system: donor-type and host-type T, B and myeloid cells
Assay: Mixed chimerism status by flow cytometry
Conditions: PB and SPL of Foxp3DTR MCs

With diphtheria toxin [DT] the “MC status before and after treatment” value was “did not have significant impact”.

From US20240325451A1, “METHODS OF INDUCING ORGAN TRANSPLANTATION IMMUNE TOLERANCE AND ASSOCIATED COMPOSITIONS AND METHODS” (CITY OF HOPE, priority 2023, published 2024)
